From patent US20110268794A1, “METHODS AND MATERIALS FOR DELIVERING BILE ACIDS” (priority 2009, published 2011)

Assays:
Assay type in all cases: in vivo, human
female IBS-C patients [1] = assay: Scintigraphic gastrointestinal and colonic transit, female IBS-C patients (Example 2)
Experimental: (§1) The following study was performed to evaluate the effects of ileocolonic delivery of sodium chenodeoxycholate (CDC) on gastrointestinal (GI) and colonic transit and bowel function in constipation-predominant irritable bowel syndrome (IBS-C). A double-blind, placebo-controlled study evaluated effects of once-daily CDC for 4 days in 36 female IBS-C patients (mean age 41.80±1.62 y). Patients were randomized to oral placebo, 500 mg or 1000 mg CDC delivered to the ileocolonic region in pH-sensitive, methacrylate-coated capsules. Fasting serum 7α-hydroxy-4-cholesten-3-one (7αC4) was measured to assess for baseline abnormalities in bile acid synthesis. […] Treatment effects were compared by ANCOVA with BMI as a covariate, and each CDC dose against placebo by Dunnett's test.

healthy volunteers [2] = assay: Scintigraphic gastrointestinal and colonic transit, healthy volunteers (Example 1); conditions: for AC t1/2 (ascending colon emptying) / CF 6 (colonic filling at 6 hours) / GC 4 (colonic geometric center at 4 h) / GC 6 (colonic geometric center at 6 h) / GC 8 (colonic geometric center at 8 h) / GC 48 (colonic geometric center at 48 h) / GC 24 (colonic geometric center at 24 h) / GE t1/2 (gastric emptying): N = 20, mean ± SEM; for GC 48 (colonic geometric center at 48 h): overall p < 0.0001; for GC 24 (colonic geometric center at 24 h): overall p = 0.01; for GE t1/2 (gastric emptying): methacrylate-coated capsule
Experimental: This was a double-blind, placebo-controlled, randomized study evaluating the effects of sodium chenodeoxycholate (CDC) or placebo orally administered once daily for four days in healthy volunteers.
Randomization was 1:1:1 for placebo, chenodeoxycholate 500 mg, and chenodeoxycholate 1000 mg. Sodium chenodeoxycholate was purchased from Calbiochem, EMD Chemicals Inc., and Mayo pharmacy prepared identical placebo and chenodeoxycholate capsules, all of which were coated with the pH sensitive polymer, methacrylate. The latter dissolves at the neutral pH found in the distal ileum and was used to ensure ileocolonic delivery of the chenodeoxycholate.
Three groups (n=20 each) were randomized to oral placebo, 500 mg or 1000 mg CDC daily (in pH-sensitive, methacrylate-coated capsules), each for a period of 4 days.
Gastrointestinal (GI) and colonic transit was conducted by a scintigraphic method (Burton et al., J. Nucl. Med., 38:1807-10 (1997); Cremonini et al., Aliment Pharmacol. Ther., 16:1781-90 (2002); and Camilleri and Zinsmeister, Gastroenterology, 103:36-42 (1992)) during the last 48 hours of drug ingestion (FIG. 1).
An adaptation of an established scintigraphic method was used to measure GI and colonic transit (Burton et al., J. Nucl. Med., 38:1807-10 (1997); Cremonini et al., Aliment Pharmacol. Ther., 16:1781-90 (2002); and Camilleri and Zinsmeister, Gastroenterology, 103:36-42 (1992)). ^111In was adsorbed on to activated charcoal particles and delivered to the colon by means of a methacrylate-coated, delayed-release oral capsule. The capsule was ingested following an overnight fast. After the capsule emptied from the stomach, a ^99mTc-sulfur colloid radiolabeled meal was ingested. It consisted of two scrambled eggs, one slice of whole wheat bread, and one glass of whole milk. This meal facilitates measurement of gastric and small bowel transit. Subjects ingested standardized meals for lunch and dinner at 4 and 8 hours after the radiolabeled meal, respectively. Abdominal scans were obtained every hour for the first 6 hours (the first 4 hours for the assessment of gastric emptying) and at 8, 24, and 48 hours after ingestion of the ^111In capsule. The performance characteristics of this test are summarized elsewhere (Cremonini et al., Aliment Pharmacol. Ther., 16:1781-90 (2002)).
The counts in the stomach and each of four colonic regions: ascending, transverse, descending, and combined sigmoid and rectum were quantitated with a variable region of interest program. Counts were corrected for isotope decay, tissue attenuation, and downscatter of ^111In counts in the ^99mTc window (Burton et al., J. Nucl. Med., 38:1807-10 (1997) and Cremonini et al., Aliment Pharmacol. Ther., 16:1781-90 (2002)).
Gastric emptying t1/2 is a measure of the time for 50% of the radiolabeled meal (identifiable by radiolabeled tracer) to empty from the stomach. Colonic filling at 6 hours, or the proportion of the radiolabeled meal to have reached the colon at 6 hours is an indirect measurement of small bowel transit time. Overall colonic transit was summarized as the colonic geometric center (GC) at specified times. The GC is the weighted average of counts in the different colonic regions [ascending (AC), transverse (TC), descending (DC), rectosigmoid (RS)] and stool, respectively 1 to 5. Thus, at any time, the proportion of counts in each colonic region is multiplied by its weighting factor as follows:
(% AC×1+% TC×2+% DC×3+% RS×4+% stool×5)/100=GC
Thus, a higher GC reflects a faster colonic transit. Ascending colon emptying was summarized by the t1/2 calculated by linear interpolation of values on the AC emptying curve.
The primary endpoints were the colonic GC at 24 hours (GC 24) and AC emptying t1/2.

female IBS-C patients [3] = assay: Side effects, female IBS-C patients (Example 2)
Experimental: as §1

healthy volunteers [4] = assay: Adverse events, healthy volunteers (Example 1)
Experimental: This was a double-blind, placebo-controlled, randomized study evaluating the effects of sodium chenodeoxycholate (CDC) or placebo orally administered once daily for four days in healthy volunteers. An independent statistician generated the randomization code. Clinical and laboratory study personnel were blinded throughout the study until data were locked and analyzed. Safety monitoring was conducted throughout the study. Three groups (n=20 each) were randomized to oral placebo, 500 mg or 1000 mg CDC daily (in pH-sensitive, methacrylate-coated capsules), each for a period of 4 days.

[5] = 500 mg or 1000 mg once daily 4 days vs placebo
[6] = CDC 500 mg once daily 4 days, N = 11, mean ± SEM
[7] = CDC 1000 mg once daily 4 days, N = 12, mean ± SEM
[8] = 500 mg or 1000 mg once daily 4 days vs placebo, healthy volunteers

C[C@H](CCC(=O)O)[C@H]1CC[C@H]2[C@@H]3[C@H](O)C[C@@H]4C[C@H](O)CC[C@]4(C)[C@H]3CC[C@]12C [CDC, sodium chenodeoxycholate]
Effect on colonic filling at 6 hours (female IBS-C patients [1]; [5]): not affected
Effect on gastric emptying t1/2 (female IBS-C patients [1]; [5]): not affected
AC t1/2 (ascending colon emptying) (female IBS-C patients [1]; [6]): 9.55 ± 2.90 h
CF 6 (colonic filling at 6 hours) (female IBS-C patients [1]; [6]): 52.64 ± 6.67%
GC 24 (colonic geometric center at 24 hours) (female IBS-C patients [1]; [6]): 3.12 ± 0.43
AC t1/2 (ascending colon emptying) (female IBS-C patients [1]; [7]): 8.19 ± 1.78 h
CF 6 (colonic filling at 6 hours) (female IBS-C patients [1]; [7]): 54.75 ± 7.05%
GC 24 (colonic geometric center at 24 hours) (female IBS-C patients [1]; [7]): 3.49 ± 0.36
Treatment effect on colonic filling (healthy volunteers [2]; [8]): not detected
Treatment effect on gastric emptying (healthy volunteers [2]; [8]): not detected
AC t1/2 (ascending colon emptying) (healthy volunteers [2]; CDC 500 mg once daily 4 days): 12.1 ± 2.1 h
CF 6 (colonic filling at 6 hours) (healthy volunteers [2]; CDC 500 mg once daily 4 days): 49.6 ± 7.0%
GC 4 (colonic geometric center at 4 h) (healthy volunteers [2]; CDC 500 mg once daily 4 days): 0.87 ± 0.18
GC 6 (colonic geometric center at 6 h) (healthy volunteers [2]; CDC 500 mg once daily 4 days): 1.53 ± 0.28
GC 8 (colonic geometric center at 8 h) (healthy volunteers [2]; CDC 500 mg once daily 4 days): 1.83 ± 0.27
GC 48 (colonic geometric center at 48 h) (healthy volunteers [2]; CDC 500 mg once daily 4 days): 4.10 ± 0.21
GC 24 (colonic geometric center at 24 h) (healthy volunteers [2]; CDC 500 mg once daily 4 days): 2.80 ± 0.27
GE t1/2 (gastric emptying) (healthy volunteers [2]; CDC 500 mg oral once daily 4 days): 2.115 ± 0.0883 h
AC t1/2 (ascending colon emptying) (healthy volunteers [2]; CDC 1000 mg once daily 4 days): 10.7 ± 1.9 h
CF 6 (colonic filling at 6 hours) (healthy volunteers [2]; CDC 1000 mg once daily 4 days): 46.0 ± 7.1%
GC 4 (colonic geometric center at 4 h) (healthy volunteers [2]; CDC 1000 mg once daily 4 days): 1.27 ± 0.33
GC 6 (colonic geometric center at 6 h) (healthy volunteers [2]; CDC 1000 mg once daily 4 days): 2.20 ± 0.43
GC 8 (colonic geometric center at 8 h) (healthy volunteers [2]; CDC 1000 mg once daily 4 days): 2.52 ± 0.39
GC 48 (colonic geometric center at 48 h) (healthy volunteers [2]; CDC 1000 mg once daily 4 days): 4.92 ± 0.05
GC 24 (colonic geometric center at 24 h) (healthy volunteers [2]; CDC 1000 mg once daily 4 days): 3.76 ± 0.30
GE t1/2 (gastric emptying) (healthy volunteers [2]; CDC 1000 mg oral once daily 4 days): 2.383 ± 0.235 h
Safety issues (female IBS-C patients [3]; 500 mg or 1000 mg once daily 4 days): No safety issues were identified
Patients with diarrhea (female IBS-C patients [3]; CDC 500 mg once daily 4 days): 18%
Patients with lower abdominal cramps/pain (female IBS-C patients [3]; CDC 500 mg once daily 4 days): 45%
Patients with diarrhea (female IBS-C patients [3]; CDC 1000 mg once daily 4 days): 17%
Patients with lower abdominal cramps/pain (female IBS-C patients [3]; CDC 1000 mg once daily 4 days): 42%
Serious adverse events (healthy volunteers [4]; 500 mg or 1000 mg once daily 4 days, healthy volunteers): no serious adverse events
Percent of participants dizzy, light-headed (healthy volunteers [4]; CDC 500 mg once daily 4 days, n=20): 10%
